Experimental data: PubChem BioAssay (NCI)
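Each compound was tested at five concentrations against cells in 96-well plates for 48 hours. TGI: total growth inhibition.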

Experiments:
Assay in all cases: inhibition of tumour cell growth, NCI panel, 48 h
786-0 renal = system: 786-0 renal
A498 renal = system: A498 renal
A549 NSCLC = system: A549 NSCLC
ACHN renal = system: ACHN renal
CAKI-1 renal = system: CAKI-1 renal
CCRF-CEM leukemia = system: CCRF-CEM leukemia
COLO 205 colon = system: COLO 205 colon
DLD-1 colon = system: DLD-1 colon
DMS 114 small cell lung = system: DMS 114 small cell lung
EKVX NSCLC = system: EKVX NSCLC
HCC-2998 colon = system: HCC-2998 colon
HCT-116 colon = system: HCT-116 colon
HCT-15 colon = system: HCT-15 colon
HL-60(TB) leukemia = system: HL-60(TB) leukemia
HOP-18 NSCLC = system: HOP-18 NSCLC
HOP-62 NSCLC = system: HOP-62 NSCLC
HOP-92 NSCLC = system: HOP-92 NSCLC
HT29 colon = system: HT29 colon
IGROV1 ovarian = system: IGROV1 ovarian
K-562 leukemia = system: K-562 leukemia
KM12 colon = system: KM12 colon
KM20L2 colon = system: KM20L2 colon
LOX IMVI melanoma = system: LOX IMVI melanoma
LXFL 529 NSCLC = system: LXFL 529 NSCLC
M14 melanoma = system: M14 melanoma
M19-MEL melanoma = system: M19-MEL melanoma
MALME-3M melanoma = system: MALME-3M melanoma
MOLT-4 leukemia = system: MOLT-4 leukemia
NCI-H226 lung = system: NCI-H226 lung
NCI-H23 lung = system: NCI-H23 lung
NCI-H460 lung = system: NCI-H460 lung
OVCAR-3 ovarian = system: OVCAR-3 ovarian
OVCAR-4 ovarian = system: OVCAR-4 ovarian
OVCAR-5 ovarian = system: OVCAR-5 ovarian
OVCAR-8 ovarian = system: OVCAR-8 ovarian
RPMI-8226 leukemia = system: RPMI-8226 leukemia
RXF 393 renal = system: RXF 393 renal
SF-268 CNS = system: SF-268 CNS
SF-295 CNS = system: SF-295 CNS
SF-539 CNS = system: SF-539 CNS
SK-MEL-28 melanoma = system: SK-MEL-28 melanoma
SK-MEL-5 melanoma = system: SK-MEL-5 melanoma
SN12C renal = system: SN12C renal
SNB-19 CNS = system: SNB-19 CNS
SNB-75 CNS = system: SNB-75 CNS
SNB-78 CNS = system: SNB-78 CNS
SR leukemia = system: SR leukemia
SW-620 colon = system: SW-620 colon
TK-10 renal = system: TK-10 renal
UACC-257 melanoma = system: UACC-257 melanoma
UACC-62 melanoma = system: UACC-62 melanoma
UO-31 renal = system: UO-31 renal
BT-549 breast = system: BT-549 breast
DU-145 prostate = system: DU-145 prostate
HS 578T breast = system: HS 578T breast
MCF7 breast = system: MCF7 breast
MDA-MB-231 breast = system: MDA-MB-231 breast
MDA-MB-435 = system: MDA-MB-435
MDA-N = system: MDA-N
NCI-H522 lung = system: NCI-H522 lung
NCI/ADR-RES ovarian = system: NCI/ADR-RES ovarian
PC-3 prostate = system: PC-3 prostate
SK-MEL-2 melanoma = system: SK-MEL-2 melanoma
SK-OV-3 ovarian = system: SK-OV-3 ovarian
T-47D breast = system: T-47D breast
U251 CNS = system: U251 CNS

CC(=O)N1[C@H](C(=O)O)CS[C@H]1c1ccncc1
TGI (786-0 renal): > 100 µM | TGI (A498 renal): > 100 µM | TGI (A549 NSCLC): > 100 µM | TGI (ACHN renal): > 100 µM | TGI (CAKI-1 renal): > 100 µM | TGI (CCRF-CEM leukemia): > 100 µM | TGI (COLO 205 colon): > 100 µM | TGI (DLD-1 colon): > 100 µM | TGI (DMS 114 small cell lung): > 100 µM | TGI (EKVX NSCLC): > 100 µM | TGI (HCC-2998 colon): > 100 µM | TGI (HCT-116 colon): > 100 µM | TGI (HCT-15 colon): > 100 µM | TGI (HL-60(TB) leukemia): > 100 µM | TGI (HOP-18 NSCLC): > 100 µM | TGI (HOP-62 NSCLC): > 100 µM | TGI (HOP-92 NSCLC): > 100 µM | TGI (HT29 colon): > 100 µM | TGI (IGROV1 ovarian): > 100 µM | TGI (K-562 leukemia): > 100 µM | TGI (KM12 colon): > 100 µM | TGI (KM20L2 colon): > 100 µM | TGI (LOX IMVI melanoma): > 100 µM | TGI (LXFL 529 NSCLC): > 100 µM | TGI (M14 melanoma): > 100 µM | TGI (M19-MEL melanoma): > 100 µM | TGI (MALME-3M melanoma): > 100 µM | TGI (MOLT-4 leukemia): > 100 µM | TGI (NCI-H226 lung): > 100 µM | TGI (NCI-H23 lung): > 100 µM | TGI (NCI-H460 lung): > 100 µM | TGI (OVCAR-3 ovarian): > 100 µM | TGI (OVCAR-4 ovarian): > 100 µM | TGI (OVCAR-5 ovarian): > 100 µM | TGI (OVCAR-8 ovarian): > 100 µM | TGI (RPMI-8226 leukemia): > 100 µM | TGI (RXF 393 renal): > 100 µM | TGI (SF-268 CNS): > 100 µM | TGI (SF-295 CNS): > 100 µM | TGI (SF-539 CNS): > 100 µM | TGI (SK-MEL-28 melanoma): > 100 µM | TGI (SK-MEL-5 melanoma): > 100 µM | TGI (SN12C renal): > 100 µM | TGI (SNB-19 CNS): > 100 µM | TGI (SNB-75 CNS): > 100 µM | TGI (SNB-78 CNS): > 100 µM | TGI (SR leukemia): > 100 µM | TGI (SW-620 colon): > 100 µM | TGI (TK-10 renal): > 100 µM | TGI (UACC-257 melanoma): > 100 µM | TGI (UACC-62 melanoma): > 100 µM | TGI (UO-31 renal): > 100 µM

C=C1C[C@@H]2CC[C@@]34CC5O[C@H]6C(O[C@H]7CC[C@H](CC(=O)O[C@@H]8[C@@H](C)[C@@H]9O[C@@H]%10C[C@]%11(C[C@@H]%12O[C@]%13(C[C@H](C)[C@@H]%14O[C@@H]%15CC(C(O)CO)O[C@@H]%15C[C@@H]%14O%13)C[C@H](C)[C@@H]%12O%11)O[C@@H]%10C[C@@H]9O[C@H]8CC8O[C@@H](CC[C@@H]1O2)C[C@@H](C)C8(O)CO)O[C@@H]7[C@@H]6O3)[C@H]5O4 (stereo partly drawn)
TGI (786-0 renal): > 1 µM | TGI (A498 renal): > 1 µM | TGI (A549 NSCLC): > 1 µM | TGI (ACHN renal): > 1 µM | TGI (BT-549 breast): 0.469 µM | TGI (CAKI-1 renal): > 1 µM | TGI (CCRF-CEM leukemia): > 1 µM | TGI (COLO 205 colon): > 1 µM | TGI (DU-145 prostate): > 1 µM | TGI (EKVX NSCLC): > 1 µM | TGI (HCC-2998 colon): > 1 µM | TGI (HCT-116 colon): > 1 µM | TGI (HCT-15 colon): > 1 µM | TGI (HL-60(TB) leukemia): > 1 µM | TGI (HOP-62 NSCLC): > 1 µM | TGI (HOP-92 NSCLC): > 1 µM | TGI (HS 578T breast): > 0.815 µM | TGI (IGROV1 ovarian): > 1 µM | TGI (K-562 leukemia): > 1 µM | TGI (KM12 colon): > 1 µM | TGI (LOX IMVI melanoma): > 1 µM | TGI (M14 melanoma): > 1 µM | TGI (MALME-3M melanoma): > 1 µM | TGI (MCF7 breast): > 1 µM | TGI (MDA-MB-231 breast): > 1 µM | TGI (MDA-MB-435): > 1 µM | TGI (MDA-N): > 1 µM | TGI (MOLT-4 leukemia): > 1 µM | TGI (NCI-H226 lung): > 1 µM | TGI (NCI-H23 lung): > 1 µM | TGI (NCI-H460 lung): > 1 µM | TGI (NCI-H522 lung): 0.614 µM | TGI (NCI/ADR-RES ovarian): > 1 µM | TGI (OVCAR-3 ovarian): > 1 µM | TGI (OVCAR-4 ovarian): > 1 µM | TGI (OVCAR-5 ovarian): > 1 µM | TGI (OVCAR-8 ovarian): > 1 µM | TGI (PC-3 prostate): > 1 µM | TGI (RPMI-8226 leukemia): > 1 µM | TGI (RXF 393 renal): > 1 µM | TGI (SF-268 CNS): > 1 µM | TGI (SF-295 CNS): > 1 µM | TGI (SK-MEL-2 melanoma): > 1 µM | TGI (SK-MEL-28 melanoma): > 1 µM | TGI (SK-MEL-5 melanoma): > 1 µM | TGI (SK-OV-3 ovarian): > 1 µM | TGI (SN12C renal): > 1 µM | TGI (SNB-19 CNS): > 1 µM | TGI (SNB-75 CNS): > 1 µM | TGI (SR leukemia): > 1 µM | TGI (SW-620 colon): > 1 µM | TGI (T-47D breast): > 1 µM | TGI (TK-10 renal): > 1 µM | TGI (U251 CNS): > 1 µM | TGI (UACC-257 melanoma): > 1 µM | TGI (UACC-62 melanoma): > 1 µM | TGI (UO-31 renal): > 1 µM

CC(C)(C)c1cc(C(=O)/C=C/c2c(Cl)cccc2Cl)cc(C(C)(C)C)c1O
TGI (786-0 renal): 29.7 µM | TGI (A498 renal): > 100 µM | TGI (A549 NSCLC): > 100 µM | TGI (ACHN renal): 28.2 µM | TGI (BT-549 breast): 61.7 µM | TGI (CAKI-1 renal): 54.9 µM | TGI (CCRF-CEM leukemia): 22 µM | TGI (COLO 205 colon): 32 µM | TGI (DU-145 prostate): > 96.2 µM | TGI (EKVX NSCLC): 63.3 µM | TGI (HCC-2998 colon): 28.1 µM | TGI (HCT-116 colon): 23.2 µM | TGI (HCT-15 colon): 27.9 µM | TGI (HL-60(TB) leukemia): 25.9 µM | TGI (HOP-62 NSCLC): > 54.8 µM | TGI (HOP-92 NSCLC): > 95.7 µM | TGI (HS 578T breast): > 84 µM | TGI (HT29 colon): 26.3 µM | TGI (IGROV1 ovarian): > 100 µM | TGI (K-562 leukemia): > 100 µM | TGI (KM12 colon): 36.8 µM | TGI (LOX IMVI melanoma): 28.3 µM | TGI (M14 melanoma): 54.7 µM | TGI (MALME-3M melanoma): 37.6 µM | TGI (MCF7 breast): 46 µM | TGI (MDA-MB-231 breast): 41.6 µM | TGI (MDA-MB-435): 54.4 µM | TGI (MDA-N): > 68.3 µM | TGI (MOLT-4 leukemia): > 56.5 µM | TGI (NCI-H226 lung): 35.2 µM | TGI (NCI-H23 lung): 48.9 µM | TGI (NCI-H460 lung): 24 µM | TGI (NCI-H522 lung): 17.5 µM | TGI (NCI/ADR-RES ovarian): 77.9 µM | TGI (OVCAR-3 ovarian): 25.3 µM | TGI (OVCAR-4 ovarian): > 100 µM | TGI (OVCAR-5 ovarian): 35 µM | TGI (OVCAR-8 ovarian): > 100 µM | TGI (PC-3 prostate): > 63.9 µM | TGI (RPMI-8226 leukemia): 21.3 µM | TGI (RXF 393 renal): 14.9 µM | TGI (SF-268 CNS): > 58.9 µM | TGI (SF-295 CNS): 42.2 µM | TGI (SF-539 CNS): 31.6 µM | TGI (SK-MEL-2 melanoma): 26.4 µM | TGI (SK-MEL-28 melanoma): 41.3 µM | TGI (SK-MEL-5 melanoma): 23.9 µM | TGI (SK-OV-3 ovarian): > 100 µM | TGI (SN12C renal): > 75.2 µM | TGI (SNB-19 CNS): 29.7 µM | TGI (SNB-75 CNS): 34.3 µM | TGI (SR leukemia): > 37 µM | TGI (SW-620 colon): 36.2 µM | TGI (T-47D breast): 18 µM | TGI (TK-10 renal): 41.5 µM | TGI (U251 CNS): 24.5 µM | TGI (UACC-257 melanoma): 17.6 µM | TGI (UACC-62 melanoma): 30.3 µM | TGI (UO-31 renal): 28.1 µM
